US10688096B2, “Methods for treatment of sleep-related breathing disorders” (The University of Chicago, priority 2010, dated 2020)

How the values were obtained:
[1] = test system: H2S generation in adrenal glands; experiment: H2S generation in adrenal glands of rat pups; format: biochemical, rats; settings: PAG treated rat pups vs vehicle; data not shown
[2] = Respiration (rate and depth) in spontaneously hypertensive and Sprague-Dawley rats, whole body polysomnography; format: in vivo; settings: FIG. 14
Procedure: FIG. 14. […] Spontaneously hypertensive rats (SHR) were treated with the CSE inhibitor propargylglycine. Their respiration was measured using whole body polysomnography. The control animals were Sprague-Dawley rats.

carotid body [3] = experiment: Carotid body sensory activity ex vivo (carotid sinus nerve single unit discharge), rats
Procedure: (§1) Sensory activity from carotid bodies ex vivo was recorded as previously described (Peng, Y. J., et al., PNAS, 2003, 100, 10073-78; Peng Y. J., et. al., J. Physiol., 2006, 577, 705-716). Briefly, carotid bodies along with the sinus nerves were harvested from anaesthetized mice or rats, placed in a recording chamber (volume, 250 μl) and superfused with warm physiological saline (35° C.) at a rate of 2.5 ml/min having the following composition (mM): NaCl (140), KCl (5.4), CaCl2 (2.5), MgCl2 (0.5), HEPES (5.5), D-glucose (11), sucrose (5), and the solution was bubbled with 100% O2 and pH was adjusted to 7.35. Carotid bodies were challenged with graded hypoxia by switching the perfusate equilibrated with gas mixtures containing varying levels of O2. For assessing the carotid body response to CO2, bicarbonate-buffered medium equilibrated with either […] (baseline) or 90% 02+10% CO2 balance N2. Clearly identifiable action potentials (2-3 active units) were recorded from one of the nerve bundles with a suction electrode and stored in a computer via a data acquisition system (PowerLab/8P, AD Instruments Pty Ltd, Australia). ‘Single’ units were selected based on the height and duration of the individual action potentials using a spike discrimination program (Spike Histogram Program, Power Laboratory, AD Instruments). In each carotid body, at least two chemoreceptor units were analyzed. The PO2, and PCO2 of the superfusion medium were determined by a blood gas analyzer (ABL 5, Radiometer, Copenhagen, Denmark).
(§2) Rats and mice were treated with DL-propargylglycine (Sigma; 200 mg/kg) or Cr(III) Mesoporphyrin IX chloride (CrM459, Frontier Scientific, Logan, Utah; 1 mg/kg) intraperitoneally 2-3 h before acute experiments on anesthetized animals. NaHS (Sigma chemicals, MO) was given acutely to the ex vivo carotid body preparation. In the in vitro assays for H2S measurements, known concentrations of HO-2 inhibitor and CO donor (tricarbonyldichlororuthenium, [Ru(CO)3Cl2]2, Sigma, USA) were added to cell lysates. All solutions with drugs were prepared fresh during the experiments.
(§3) In unsedated mice RR (breaths/min), VT (μl), minute ventilation [VE (ml/min)=RR×VT], O2 consumption (VO2, ml/min), and CO2 production (VCO2 ml/min) were analyzed. Respiratory variables (RR and VT) were averaged for at least 20 consecutive breaths over 5 min of inspired O2 and CO2 challenge. VT, VE, VO2 and VCO2 were normalized to body weight. Carotid body sensory activity (discharge from ‘single’ units) was averaged during 3 min of baseline and during the 3 min of gas challenge and expressed as impulses per second unless otherwise stated. The number of secretory events and the amount of catecholamine secreted per secretory event were analyzed in each experiment and the data were expressed as total catecholamines secreted. Average data are presented as mean±S.E.M. Statistical significance was assessed by either ANOVA or two-way ANOVA with repeated measures followed by Tukey's test. p values <0.05 were considered significant.

carotid body [4] = experiment: Carotid body sensory activity ex vivo (carotid sinus nerve single unit discharge), mice
Procedure: as §1, §2, §3

[5] = test system: H2S generation in carotid bodies; experiment: Measurement of H2S levels in carotid body homogenates, rats; format: biochemical
Procedure: (§4) H2S levels in the carotid body were assayed as follows. Briefly, carotid bodies were pooled (4 carotid bodies per experiment in rats; 6 carotid bodies per experiment in mice) and tissue homogenates were prepared in 100 mM potassium phosphate buffer, pH 7.4. The enzyme reaction was carried out in sealed tubes flushed with either N2 or different levels of O2—N2 gas mixtures. The PO2 of the reaction medium was determined by blood gas analyzer (ABL5). The assay mixture in a total volume of 500 μl contains (in final concentration): L-cysteine, (800 μM); pyridoxal 5′-phosphate, (80 μM); potassium phosphate buffer, pH 7.4, (100 mM); and tissue homogenate (2 μg protein). The reaction mixture was incubated at 37° C. for 1 h and at the end of the reaction, alkaline zinc acetate (1% w/v; 250 up and trichloroacetic acid (10% v/v) was added sequentially to trap H2S generated and to stop the reaction, respectively. The zinc sulfide formed was reacted sequentially with acidic N,N-dimethyl-p-phenylenediamine sulfate (20 μM) and ferric chloride (30 μM) and the absorbance was measured at 670 nm using a micro-plate reader. A standard curve relating the concentration of Na2S and absorbance was used to calculate H2S concentration and expressed as nanomoles of H2S formed per hour per milligram protein.
as §2

[6] = test system: neonatal adrenal medullary chromaffin cells (AMC); experiment: Catecholamine secretion from neonatal adrenal medullary chromaffin cells by amperometry; format: cell-based, rats; settings: 40 mM K+, AMC from PAG treated rat pups; FIG. 6B
Procedure: The protocols for preparation of chromaffin cells and measurements of catecholamine secretion by amperometry are as follows. Briefly, adrenal glands were harvested from anesthetized mice and rats aged P10. Chromaffin cells were enzymatically dissociated, plated on collagen (type VII; Sigma) coated coverslips, and maintained at 37° C. in a 5% CO2 incubator for 12-24 h. The growth medium consisted of F-12 K medium (Invitrogen) supplemented with 10% horse serum, 5% fetal bovine serum, and 1% Penicillin/streptomycin/glutamine cocktail (Invitrogen). Catecholamine secretion from chromaffin cells was monitored by amperometry using carbon fiber electrodes. […] Normoxic solutions were equilibrated with room air (PO2˜146 mmHg), and hypoxic solutions were equilibrated with appropriate gas mixtures that yielded medium PO2, of ˜30-40 mmHg as measured by blood gas analyzer. […]
In unsedated mice RR (breaths/min), VT (μl), minute ventilation [VE (ml/min)=RR×VT], O2 consumption (VO2, ml/min), and CO2 production (VCO2 ml/min) were analyzed. […] Carotid body sensory activity (discharge from ‘single’ units) was averaged during 3 min of baseline and during the 3 min of gas challenge and expressed as impulses per second unless otherwise stated. […]

[7] = test system: H2S generation in carotid bodies; experiment: Measurement of H2S levels in carotid body homogenates, mice; format: biochemical; settings: 1 μM, normoxia, FIG. 5A
Procedure: as §4, with “protein. […]” for “protein.”

[8] = systemic administration (1 mg/kg i.p.), CSE+/+ mice, FIG. 5B-D

With `C#CCC(N)C(=O)O` (racemic) [PAG, DL-propargylglycine] the “hypoxia-induced increase of H2S generation in adrenal glands” value [1] was “greatly reduced or absent”, the respiration frequency ([2]; control Sprague-Dawley rats treated with PAG) was “reducing respiration frequency very slightly” and the breathing pattern ([2]; spontaneously hypertensive rats (SHR) treated with PAG) was “normalized”. The “carotid body response to CO2” value (carotid body [3]; PAG treated rats (same rats tested for hypoxia), FIG. 3C) was “significantly augmented”, the “carotid body sensory response to hypoxia” value (carotid body [3]; PAG treated rats vs vehicle, FIG. 3B) was “significantly attenuated” and the “carotid body sensory response to hypoxia” value (carotid body [4]; CSE+/+ mice treated systemically with PAG (200 mg/kg i.p. 2-3 h before), FIG. 9) was “loss of the hypoxic response”. For the same compound, the “carotid body hypoxic response, acute application” value (carotid body [4]; acute application of PAG to the carotid body) was “ineffective in preventing the hypoxic response”, the “basal H2S levels in carotid body” value ([5]; PAG treated rats (vehicle=266±61)) was 147±50 nmol/h/mg protein and the “reduction of basal H2S levels in carotid body” value ([5]; PAG treated rats vs vehicle, p<0.05) was 55%. The “hypoxia-evoked H2S generation in carotid bodies” value ([5]; PAG treated rats, graded hypoxia, FIG. 3A) was “nearly absent” and the “K+-evoked catecholamine secretion” value [6] was “unaffected”.

For `CCC1=C(C)c2cc3[n-]c(cc4nc(cc5[n-]c(cc1n2)c(C)c5CCC(=O)O)C(CCC(=O)O)=C4C)c(C)c3CC.[Cl][Cr+2]` [Cr (III) MP, Cr (III) mesoporphyrin IX chloride], the “baseline carotid body activity” value (carotid body [4]; [8]) was “significantly increased”, the “carotid body hypoxic response” value (carotid body [4]; [8]) was “potentiated” and the “H2S generation in carotid bodies under normoxia” value ([5]; rat carotid bodies, 1 and 100 μM, FIG. 13A) was “enhanced”. The “increase of H2S generation in carotid bodies” value ([7]; CSE+/+ mice) was 6 fold and the “increase of H2S generation in carotid bodies” value ([7]; CSE−/− (mutant) mice) was “abolished”.

For `N[C@@H](CS)C(=O)O` [L-cysteine], the “effect on carotid body hypoxic response” value (carotid body [3]; 100 μM L-cysteine, isolated rat carotid body, FIG. 10) was “no significant effect”.

In the case of `[Na+].[SH-]` [NaHS], the “carotid body response in Ca2+-free and EGTA containing medium” value (carotid body [3]; 100 μM NaHS, rats, FIG. 4B) is reported as “abolished”, the “onset of carotid body response after application” value (carotid body [3]; NaHS, activity returned to baseline after termination, FIG. 4A) is reported as “within seconds” and the “carotid body sensory activity” value (carotid body [3]; exogenous NaHS, rats, FIG. 4A) is reported as “augmented”. The “carotid body sensory activity” value (carotid body [4]; exogenous NaHS 100 μM, CSE+/+ and CSE−/− mice, FIG. 11) was “augmented”.

In the case of `O=[C]=[Ru]([Cl])([Cl])(=[C]=O)=[C]=O` [[Ru(CO)3Cl2]2, tricarbonyldichlororuthenium], the “H2S generation in carotid bodies under hypoxia” value ([5]; rat carotid bodies, hypoxia PO2=38 mmHg, 1 and 10 μM, FIG. 13B) is reported as “inhibited H2S generation by hypoxia nearly to the levels seen under normoxia”.

For `COc1ccc(Cl)cc1C(=O)NCCc1ccc(S(=O)(=O)NC(=O)NC2CCCCC2)cc1` [glibenclamide], the “prevention of carotid body response to NaHS” value (carotid body [3]; 100 μM glibenclamide, 100 μM NaHS, rats, FIG. 12) was “failed to prevent” and the “prevention of carotid body response to hypoxia” value (carotid body [3]; 100 μM glibenclamide, hypoxia PO2=42 mmHg, rats, FIG. 12) was “failed to prevent”.
